Counter-ions that a name gives are not always drawn.
Experiments:
Balb/c mice = experiment: open-field test, Balb/c mice (passive type of emotional-stress reaction); type: in vivo; settings: i.p., screening
How it was run: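 Male mice, 20-22 g, dosed i.p. in water 30 min before a 3-min open-field test after 1 min in darkness; peripheral, central, rearing and total activity plus defecations recorded; Student t-test. Anxiolysis read as Balb/c activation, sedation as C57B1/6 inhibition.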

aconitine arrhythmia = experiment: animal or person; type: in vivo, rats; settings: for LD50/ED50 (antiarrhythmic index): LD50 i.v. / ED50 aconitine arrhythmia; for ED50: Rattus norvegicus, iv, read-out: Aconitine arrhythmia ED50
Experimental: Aconitine arrhythmia. The aconitine arrhythmia was induced in concious rats weighing 180-200 g by the injection in tail vein of the aconitine sulfate solution at dose range of […]. […] The tested compounds were administered i.v. 3 min prior aconitine injection. The ED50 value was calculated according to Litchfield's method.

[1] = after i.v. injection
[2] = test system: calcium chloride arrhythmia; experiment: calcium chloride arrhythmia in concious rats; type: in vivo; settings: Rattus norvegicus, iv, concious rats, given 2 min prior calcium chloride 250-300 mg/kg i.v.; read-out: Calcium chloride arrhythmia ED50 (mean effective dose)
Experimental: In these experiments the outbred concious rats 180-200 g of weight were injected with 10% solution of calcium chloride in tail vein at dose range of 250-300 mg/kg.

adrenaline arrhythmia = adrenaline arrhythmia in concious rabbits; settings: given 2 min before arrhythmogenic dose of adrenaline
Experimental: Adrenaline arrhythmia. The 0,1% solution of adrenaline hydrochloride was injected to the marginal ear's vein of rabbit weighing 2,5-3,0 kg at dose ranging 120-150 mcg/kg which induced cardiac rhythm disturbances of two types.
The tested compound was injected in 3 ml of distilled water 30 min after determination of arrhythmogenic dose of adrenaline and the ECG was recorded in 2nd standard lead. 2 min after administration of tested compound the arrhythmogenic dose of adrenaline was injected.

in vivo = settings: iv
cats = experiment: hemodynamics and activity of intact heart in cats under anesthesia; type: in vivo; settings: for effect on heart rate, in words: VIII 1,0, IX 0,5 and 1,0, XX 1,0 and 2,0 mg/kg, XXIII 1.0, verapamil 0.5 mg/kg
Experimental: The effects of compounds on the hemodynamics and activity of intact heart were studied in cats under anesthesia. The experiments were carried out under conditions of open chest. The phase curve of aortic blood flow was the main index of cardiac activity. The compounds were administered i.v. in physiological solution. The t-Student' test was used to estimate the statistical significance.

[3] = test system: ischemized myocardium of cats; experiment: ST-segment elevation during 5 min occlusions of coronary artery (acute coronary deficiency); type: in vivo; settings: cats, bolus injection
Experimental: These experiments were conducted in cats weighing 2,5-4,0 kg under anasthesia by i.v. injection of nembutal (40 mg/kg) in open chest conditions. Epicardium electrogram in 3-4 leads was registered in “Mingograph-81”. The value of mean elevation of ST-segment during 5 min occlusions of anterior left descending coronary artery with 15 min reperfusions between them was the main index of intensity of reversible ischemized damage of myocardium.
The statistical calculation was carried out with non-parametric Wilcocson method for associated variants.

[4] = test system: ventricular disturbances of heart rhythm; experiment: arrhythmia in concious dogs according to Harris; type: in vivo; settings: for % ectopic contractions, change vs basal level / Heart rate, change vs basal level: concious dogs, 2 mg/kg i.v.
Experimental: The arrhythmia in concious dogs according to Harris. The experiments were conducted in mongrel dogs of either sex weighing 9-14 kg. Under anesthesia (40 mg/kg of nembutal i.v.) and artificial respiration the two-step occlusion of the left anterior descending coronary artery was performed. The constant ECG disturbances of the heart rhythm were recorded after 24 hours. […] T-Student' test was used for statistical calculation.

[5] = test system: ischemized myocardium of cats; experiment: contractile and pump functions and ATP level of ischemized myocardium (20-40 min occlusion, reperfusion); type: in vivo
Experimental: The effects of this compound on contractile and pump functions of ischemized myocardium were studied in cats weighing 3,0-4,5 kg under anesthesia with nembutal (40 mg/kg). […] The phase curve of blood flow in ascending part of the aortic arch was recorded with electromagnetic blood flowmeter MFV-1200 (“Nihon-Kohden”, Japan). Hemodynamics, heart activity values and the number of arrhythmia were calculated. In the experiments with 40 min ischemia immediately after 60 min the intact and ischemized zones of left ventricle were dissected and freezed in liquid nitrogen. ATP level was measured using hexokinase method in these zones. 4 series of experiments (2-control and 2-basic) were conducted in 12 cats in each. For statistical calculation the t-Student and Fisher's precision test were used.

[6] = 0.5 mg/kg i.v., 0.25 min after injection
[7] = cats, 0.5 mg/kg i.v., after 2 min
[8] = cats, 0.5 mg/kg i.v., after 5 min
[9] = cats, 0.5 mg/kg i.v., after 10 min
[10] = cats, 0.5 mg/kg i.v., after 20 min
[11] = cats, 0.5 mg/kg i.v., after 30 min
[12] = 1.0 mg/kg i.v., 0.25 min after injection
[13] = cats, 1.0 mg/kg i.v., after 2 min
[14] = cats, 1.0 mg/kg i.v., after 5 min
[15] = cats, 1.0 mg/kg i.v., after 10 min
[16] = cats, 1.0 mg/kg i.v., after 20 min
[17] = cats, 1.0 mg/kg i.v., after 30 min

Cc1cc2nc(SCCN3CCCC3)[nH]c2cc1C (as salt: hydrochloride) (hydrate or solvate) [XIII, 2-[2-(Pyrrolidino)ethylthio]-5,6-dimethylbenzimidazole]
melting point: 115 to 116 °C (dec.)

CCOc1ccc2nc(SCCN3CCCC3)[nH]c2c1 (as salt: hydrochloride) [Compound X, 2-[2-(Pyrrolidino)ethylthio]-5-ethoxybenzimidazole]
melting point: 127 to 130 °C (dec.)

C=CCSc1nc2cc(C)c(C)cc2[nH]1 (as salt: hydrochloride) [III, 2-Allylthio-5,6-dimethylbenzimidazole]
melting point: 119 to 120 °C

C=CCSc1nc2ccc(OCC)cc2[nH]1 (as salt: hydrochloride) [IV, 2-Allylthio-5-ethoxybenzimidazole]
melting point: 252 to 254 °C (dec.)

CCN(CC)CCSc1nc2ccccc2n1CCc1ccccc1 (as salt: hydrochloride) [XXI, 1-(β-Phenylethyl)-2-[2-(diethylamino)ethylthio]benzimidazole]
melting point: 129 to 130 °C

CCSc1nc2cc(C)c(C)cc2[nH]1 [Compound I, 2-Ethylthio-5,6-dimethylbenzimidazole]
melting point: 123 to 124 °C
effect on the behavior (locomotor activity) of Balb/c mice in open-field test, in words (Balb/c mice): neither activatory nor inhibitory effects

CCOC(=O)Nc1ccc2c(c1)N(C(=O)CCN1CCOCC1)c1ccccc1S2 [Etmosin]
LD50/ED50 (antiarrhythmic index) (aconitine arrhythmia): 58.6
Aconitine arrhythmia ED50 (aconitine arrhythmia; concious rats, i.v. 3 min prior aconitine): 0.28 mg/kg
Acute toxicity LD50 [1]: 16.4 mg/kg

CCCSc1nc2cc(C)c(C)cc2[nH]1 [II, 2-Propylthio-5,6-dimethylbenzimidazole]
melting point: 122 to 123 °C

CCN(CC)CC(=O)Nc1c(C)cccc1C [Lidocaine, lidocaine]
ED50 [2]: 7.5 mg/kg
ED50 (aconitine arrhythmia): 7.8 mg/kg
Adrenaline arrhythmia. Range of active doses (adrenaline arrhythmia): 5.0 to 8.0 mg/kg

CCN(CC)CCNC(=O)c1ccc(N)cc1 [Novocainamide, novocainamide, reference compound]
ED50 [2]: 50 mg/kg
LD50/ED50 (antiarrhythmic index) (aconitine arrhythmia): 2.7
ED50 (aconitine arrhythmia): 41 mg/kg
LD50 (in vivo): 110 mg/kg

CC(C)NCC(O)COc1cccc2ccccc12 (centres unmarked) [Propranolol, propranolol, reference compound]
ED50 [2]: 0.8 mg/kg
Adrenaline arrhythmia. Range of active doses (adrenaline arrhythmia): 0.3 to 1.0 mg/kg

COc1ccc(CCN(C)CCCC(C#N)(c2ccc(OC)c(OC)c2)C(C)C)cc1OC (centres unmarked) [Verapamil, verapamil, reference compound]
ED50 [2]: 1.1 mg/kg
Adrenaline arrhythmia. Range of active doses (adrenaline arrhythmia): 0.3 to 1.0 mg/kg
Heart rate, change from basal level (cats; [6]): −13.7 ± 1.7 %
Mean blood flow accelaration, change from basal level (cats; [6]): −32.5 ± 5.7 %
Mean blood pressure, change from basal level (cats; [6]): −40.4 ± 7.0 %
effect on heart rate, in words (cats; cats i.v.): induced the bradycardia
Heart rate, change from basal level (cats; [7]): −11.8 ± 2.0 %
Mean blood flow accelaration (aortic), change from basal level (cats; [7]): −15.5 ± 2.4 %
Mean blood pressure, change from basal level (cats; [7]): −22.7 ± 8.1%
Heart rate, change from basal level (cats; [8]): −12.3 ± 3.0 %
Mean blood flow accelaration (aortic), change from basal level (cats; [8]): −8.1 ± 3.0 %
Mean blood pressure, change from basal level (cats; [8]): −8.7 ± 6.3%
Heart rate, change from basal level (cats; [9]): −8.1 ± 2.0 %
Mean blood flow accelaration (aortic), change from basal level (cats; [9]): −9.9 ± 2.5 %
Mean blood pressure, change from basal level (cats; [9]): −2.4 ± 2.6%
Heart rate, change from basal level (cats; [10]): −5.4 ± 2.0 %
Mean blood flow accelaration (aortic), change from basal level (cats; [10]): −8.7 ± 3.0%
Mean blood pressure, change from basal level (cats; [10]): −8.5 ± 6.6%
Heart rate, change from basal level (cats; [11]): −4.6 ± 3.4%
Mean blood flow accelaration (aortic), change from basal level (cats; [11]): −7.0 ± 4.2%
Mean blood pressure, change from basal level (cats; [11]): −11.6 ± 7.0%

CCN(CC)CCSc1nc2cc(C)c(C)cc2[nH]1.Cl.Cl [XXIII, dihydroxychloride 2-[2-(diethylamino)ethylthio]-5,6-dimethylbenzimidazole, reference compound]
duration of effect on ST-segment elevation after bolus injection, in words [3]: very short
% ectopic contractions, change vs basal level ([4]; after 1 min): −57.4 ± 17.6 %
Heart rate, change vs basal level ([4]; after 1 min): −19.0 ± 2.5 beats/min
% ectopic contractions, change vs basal level ([4]; after 3 min): −66.2 ± 18.1 %
% ectopic contractions, change vs basal level ([4]; after 5 min): −54.6 ± 16.8 %
Heart rate, change vs basal level ([4]; after 5 min): −30.4 ± 4.5 beats/min
% ectopic contractions, change vs basal level ([4]; after 10 min): −22.6 ± 8.9 %
% ectopic contractions, change vs basal level ([4]; after 15 min): −24.8 ± 11.1 %
Heart rate, change vs basal level ([4]; after 15 min): −29.0 ± 5.5 beats/min
% ectopic contractions, change vs basal level ([4]; after 30 min): −8.8 ± 4.7%
Heart rate, change vs basal level ([4]; after 30 min): −14.0 ± 4.8 beats/min
% ectopic contractions, change vs basal level ([4]; after 60 min): −5.2 ± 2.6%
Heart rate, change vs basal level ([4]; after 60 min): −12.0 ± 5.5 beats/min
duration of antiarrhythmic effect ([4]; concious dogs, 2,0 mg/kg i.v.): shorter
Cardiac volume, change from basal level (cats; [12]): +3.6 ± 3.5%
Heart rate, change from basal level (cats; [12]): −14.6 ± 1.2 %
Mean blood flow accelaration, change from basal level (cats; [12]): +2.1 ± 4.9%
Mean blood pressure, change from basal level (cats; [12]): −13.9 ± 2.9 %
effect on contractile function of heart, in words (cats; cats i.v., same doses as bradycardia): inhibition of contractile function of heart
effect on heart rate, in words (cats; cats i.v.): expressed and long bradycardia
Cardiac volume, change from basal level (cats; [13]): −3.6 ± 2.0%
Heart rate, change from basal level (cats; [13]): −11.7 ± 1.3 %
Mean blood flow accelaration (aortic), change from basal level (cats; [13]): −4.9 ± 4.7%
Mean blood pressure, change from basal level (cats; [13]): −0.2 ± 4.0%
Cardiac volume, change from basal level (cats; [14]): −0.6 ± 2.3%
Heart rate, change from basal level (cats; [14]): −7.9 ± 1.6 %
Mean blood flow accelaration (aortic), change from basal level (cats; [14]): −1.0 ± 5.0%
Mean blood pressure, change from basal level (cats; [14]): +3.4 ± 2.5%
Cardiac volume, change from basal level (cats; [15]): −0.7 ± 3.6%
Heart rate, change from basal level (cats; [15]): −5.1 ± 1.2 %
Mean blood flow accelaration (aortic), change from basal level (cats; [15]): +8.1 ± 3.0 %
Mean blood pressure, change from basal level (cats; [15]): +3.8 ± 3.2%
Cardiac volume, change from basal level (cats; [16]): −4.2 ± 2.4%
Heart rate, change from basal level (cats; [16]): −3.8 ± 1.5 %
Mean blood flow accelaration (aortic), change from basal level (cats; [16]): +4.3 ± 2.7%
Mean blood pressure, change from basal level (cats; [16]): +2.8 ± 2.8%
Cardiac volume, change from basal level (cats; [17]): −4.5 ± 3.5%
Heart rate, change from basal level (cats; [17]): −4.1 ± 1.0 %
Mean blood flow accelaration (aortic), change from basal level (cats; [17]): −2.4 ± 3.4%
Mean blood pressure, change from basal level (cats; [17]): +2.9 ± 3.2%
effect on inhibition of contractile function of myocardium induced by ischemic damage, in words ([5]; 20 min occlusion, 30 min reperfusion, 1,0 mg/kg bolus +50 mcg/kg/min i.v. during 30 min): observable only during occlusion period and first 10 min of reperfusion
effect on ATP level in ischemized myocardium, in words ([5]; 40 min occlusion, 60 min reperfusion, hexokinase method): did not change the ATP level
